Experimental data taken from ChEMBL document CHEMBL4270597, “Donepezil-butylated hydroxytoluene (BHT) hybrids as Anti-Alzheimer's disease agents with cholinergic, antioxidant, and neuroprotective properties” (Eur J Med Chem, 2018).

Columns and labels:
[1] = target: T1, Amine oxidase [flavin-containing] A (Homo sapiens, UniProt P21397); assay: Inhibition of human MAO-A using p-tyramine as substrate incubated for 15 mins followed by substrate addition measured for 20 mins by fluorescence assay
T1 sequence (P21397 whole entry): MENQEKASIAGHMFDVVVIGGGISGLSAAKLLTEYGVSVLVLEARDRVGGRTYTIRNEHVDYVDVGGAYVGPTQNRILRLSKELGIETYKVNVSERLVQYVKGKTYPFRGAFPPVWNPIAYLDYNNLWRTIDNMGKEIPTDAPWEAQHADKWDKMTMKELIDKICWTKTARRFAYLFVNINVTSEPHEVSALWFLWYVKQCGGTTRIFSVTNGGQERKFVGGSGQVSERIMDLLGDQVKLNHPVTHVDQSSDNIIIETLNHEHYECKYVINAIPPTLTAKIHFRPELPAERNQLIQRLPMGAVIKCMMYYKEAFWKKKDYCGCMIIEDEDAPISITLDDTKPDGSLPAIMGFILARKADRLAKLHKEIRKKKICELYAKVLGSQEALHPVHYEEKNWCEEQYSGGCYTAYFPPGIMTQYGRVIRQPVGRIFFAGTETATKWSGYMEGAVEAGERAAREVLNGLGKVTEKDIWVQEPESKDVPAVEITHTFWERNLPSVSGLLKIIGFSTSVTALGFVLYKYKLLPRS

[2] = Antioxidant activity assessed as ABTS radical cation scavenging activity by measuring trolox equivalent antioxidant capacity measured at 6 mins; type: functional
[3] = Antioxidant activity assessed as DPPH radical scavenging activity at 100 uM measured after 30 mins incubation in dark by UV-Visible spectrophotometric analysis relative to control; type: functional
[4] = target: Cholinesterase (Equus caballus) (UniProt P81908); assay: Inhibition of equine serum BuChE at 100 uM using butyrylthiocholine iodide as substrate incubated for 5 mins followed by substrate addition measured after 180 secs by Ellman's method relative to control
[5] = target: T2, Amine oxidase [flavin-containing] B (Homo sapiens, UniProt P27338); assay: Inhibition of human MAO-B using p-tyramine as substrate incubated for 15 mins followed by substrate addition measured for 20 mins by fluorescence assay
T2 sequence (P27338 whole entry): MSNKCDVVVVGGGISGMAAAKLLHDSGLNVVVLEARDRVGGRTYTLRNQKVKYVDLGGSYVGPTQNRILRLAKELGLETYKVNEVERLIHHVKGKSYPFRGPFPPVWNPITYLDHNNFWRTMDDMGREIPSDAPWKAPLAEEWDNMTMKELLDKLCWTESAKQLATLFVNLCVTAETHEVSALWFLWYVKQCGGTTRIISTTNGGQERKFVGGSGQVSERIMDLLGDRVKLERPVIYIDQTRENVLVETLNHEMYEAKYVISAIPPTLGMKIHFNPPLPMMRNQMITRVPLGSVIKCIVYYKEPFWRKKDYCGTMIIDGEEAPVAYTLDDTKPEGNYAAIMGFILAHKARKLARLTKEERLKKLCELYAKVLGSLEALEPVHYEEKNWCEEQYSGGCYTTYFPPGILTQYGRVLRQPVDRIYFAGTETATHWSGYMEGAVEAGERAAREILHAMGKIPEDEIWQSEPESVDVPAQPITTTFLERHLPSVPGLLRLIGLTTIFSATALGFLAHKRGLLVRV

Acetylcholinesterase [6] = target: T3, Acetylcholinesterase (Homo sapiens, UniProt P22303); assay: Inhibition of human erythrocyte AChE at 100 uM using acetylthiocholine chloride as substrate incubated for 5 mins followed by substrate addition measured after 180 secs by Ellman's method relative to control
[7] = Antioxidant activity assessed as trolox equivalent of AAPH-induced radical scavenging activity preincubated for 15 mins followed by AAPH addition measured every minute for 120 mins by ORAC-FL based fluorescein assay; type: functional
Cholinesterase [8] = target: T4, Cholinesterase (Homo sapiens, UniProt P06276); assay: Inhibition of human serum BuChE at 100 uM using butyrylthiocholine iodide as substrate incubated for 5 mins followed by substrate addition measured after 180 secs by Ellman's method relative to control
[9] = target: Acetylcholinesterase (Electrophorus electricus) (UniProt O42275); assay: Inhibition of electric eel AChE at 100 uM using acetylthiocholine chloride as substrate incubated for 5 mins followed by substrate addition measured after 180 secs by Ellman's method relative to control
[10] = Antioxidant activity assessed as DPPH radical scavenging activity measured after 30 mins incubation in dark by UV-Visible spectrophotometric analysis; type: functional
Homo sapiens = species: Homo sapiens; assay: Selectivity index, ratio of IC50 for human serum BuChE to IC50 for human erythrocyte AChE
Acetylcholinesterase [11] = target: Acetylcholinesterase (Electrophorus electricus, UniProt O42275); assay: Inhibition of electric eel AChE using acetylthiocholine chloride as substrate incubated for 5 mins followed by substrate addition measured after 180 secs by Ellman's method
Acetylcholinesterase [12] = target: T3, Acetylcholinesterase; assay: Inhibition of human erythrocyte AChE using acetylthiocholine chloride as substrate incubated for 5 mins followed by substrate addition measured after 180 secs by Ellman's method
Cholinesterase [13] = target: T4, Cholinesterase; assay: Inhibition of human serum BuChE using butyrylthiocholine iodide as substrate incubated for 5 mins followed by substrate addition measured after 180 secs by Ellman's method

T4 sequence (P06276 whole entry): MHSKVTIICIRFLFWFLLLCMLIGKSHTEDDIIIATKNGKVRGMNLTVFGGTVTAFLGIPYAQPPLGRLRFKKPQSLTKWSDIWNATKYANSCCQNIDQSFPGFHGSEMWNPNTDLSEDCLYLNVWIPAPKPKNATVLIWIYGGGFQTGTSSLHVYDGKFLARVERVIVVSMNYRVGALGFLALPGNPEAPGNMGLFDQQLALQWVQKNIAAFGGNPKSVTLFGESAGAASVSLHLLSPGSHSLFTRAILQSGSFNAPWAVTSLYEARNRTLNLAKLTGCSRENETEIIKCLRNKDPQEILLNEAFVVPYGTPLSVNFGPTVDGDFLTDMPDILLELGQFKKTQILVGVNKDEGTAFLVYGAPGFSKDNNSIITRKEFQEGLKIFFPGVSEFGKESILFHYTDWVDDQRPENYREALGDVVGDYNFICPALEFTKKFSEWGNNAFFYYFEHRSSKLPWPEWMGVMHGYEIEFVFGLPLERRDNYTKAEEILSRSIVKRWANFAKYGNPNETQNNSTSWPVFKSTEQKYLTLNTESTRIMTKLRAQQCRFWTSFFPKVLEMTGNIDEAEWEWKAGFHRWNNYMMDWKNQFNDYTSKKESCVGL
Cholinesterase (Equus caballus), sequence (P81908 whole entry): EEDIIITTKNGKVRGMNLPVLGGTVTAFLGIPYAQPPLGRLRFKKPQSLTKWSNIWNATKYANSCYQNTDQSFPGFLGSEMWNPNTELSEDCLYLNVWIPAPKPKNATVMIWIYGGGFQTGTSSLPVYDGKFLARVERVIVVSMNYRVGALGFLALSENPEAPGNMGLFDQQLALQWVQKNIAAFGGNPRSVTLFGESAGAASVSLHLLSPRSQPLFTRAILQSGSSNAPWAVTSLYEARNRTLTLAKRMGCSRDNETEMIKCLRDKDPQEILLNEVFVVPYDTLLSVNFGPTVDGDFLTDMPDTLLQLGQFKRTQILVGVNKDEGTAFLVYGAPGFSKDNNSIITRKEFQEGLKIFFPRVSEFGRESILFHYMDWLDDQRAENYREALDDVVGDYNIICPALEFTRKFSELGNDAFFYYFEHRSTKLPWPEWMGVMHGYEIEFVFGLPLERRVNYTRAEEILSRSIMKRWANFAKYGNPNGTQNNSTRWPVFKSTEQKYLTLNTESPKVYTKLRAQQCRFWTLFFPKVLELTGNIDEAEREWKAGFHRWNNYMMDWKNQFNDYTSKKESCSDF
Acetylcholinesterase (Electrophorus electricus, UniProt O42275), sequence (O42275 whole entry): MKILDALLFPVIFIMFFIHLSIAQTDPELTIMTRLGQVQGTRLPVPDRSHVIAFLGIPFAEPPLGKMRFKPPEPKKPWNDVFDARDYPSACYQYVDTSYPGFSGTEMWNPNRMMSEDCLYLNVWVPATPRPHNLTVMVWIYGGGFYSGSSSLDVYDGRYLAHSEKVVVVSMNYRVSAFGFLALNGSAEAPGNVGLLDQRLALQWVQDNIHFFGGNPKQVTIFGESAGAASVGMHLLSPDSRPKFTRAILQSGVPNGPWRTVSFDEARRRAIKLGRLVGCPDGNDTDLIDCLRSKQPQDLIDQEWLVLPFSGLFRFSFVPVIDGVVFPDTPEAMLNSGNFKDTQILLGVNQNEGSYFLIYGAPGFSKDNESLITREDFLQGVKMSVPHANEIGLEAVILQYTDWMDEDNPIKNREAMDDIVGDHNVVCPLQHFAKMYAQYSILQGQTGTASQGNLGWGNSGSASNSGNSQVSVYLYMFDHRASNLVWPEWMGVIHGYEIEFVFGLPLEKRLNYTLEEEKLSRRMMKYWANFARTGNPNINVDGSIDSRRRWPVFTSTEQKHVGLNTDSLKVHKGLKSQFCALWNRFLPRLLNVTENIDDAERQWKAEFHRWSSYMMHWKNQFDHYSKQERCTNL
T3 sequence (P22303 whole entry): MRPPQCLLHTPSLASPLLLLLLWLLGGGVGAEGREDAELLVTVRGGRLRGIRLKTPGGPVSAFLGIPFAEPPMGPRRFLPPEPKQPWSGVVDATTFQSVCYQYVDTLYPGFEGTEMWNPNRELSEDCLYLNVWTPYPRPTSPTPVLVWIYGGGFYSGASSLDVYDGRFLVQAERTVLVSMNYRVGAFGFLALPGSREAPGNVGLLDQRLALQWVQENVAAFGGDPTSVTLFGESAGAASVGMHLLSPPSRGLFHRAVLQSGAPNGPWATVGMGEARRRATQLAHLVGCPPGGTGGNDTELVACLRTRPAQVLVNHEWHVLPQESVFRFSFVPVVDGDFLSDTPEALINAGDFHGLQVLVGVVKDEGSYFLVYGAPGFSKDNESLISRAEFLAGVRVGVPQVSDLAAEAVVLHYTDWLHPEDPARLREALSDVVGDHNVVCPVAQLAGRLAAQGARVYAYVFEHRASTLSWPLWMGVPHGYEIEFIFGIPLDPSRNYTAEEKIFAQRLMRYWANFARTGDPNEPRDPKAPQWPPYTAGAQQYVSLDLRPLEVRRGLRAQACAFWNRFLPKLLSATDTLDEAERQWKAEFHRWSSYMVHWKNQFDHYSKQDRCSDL
Acetylcholinesterase (Electrophorus electricus), sequence (O42275 24-633 limits assumed): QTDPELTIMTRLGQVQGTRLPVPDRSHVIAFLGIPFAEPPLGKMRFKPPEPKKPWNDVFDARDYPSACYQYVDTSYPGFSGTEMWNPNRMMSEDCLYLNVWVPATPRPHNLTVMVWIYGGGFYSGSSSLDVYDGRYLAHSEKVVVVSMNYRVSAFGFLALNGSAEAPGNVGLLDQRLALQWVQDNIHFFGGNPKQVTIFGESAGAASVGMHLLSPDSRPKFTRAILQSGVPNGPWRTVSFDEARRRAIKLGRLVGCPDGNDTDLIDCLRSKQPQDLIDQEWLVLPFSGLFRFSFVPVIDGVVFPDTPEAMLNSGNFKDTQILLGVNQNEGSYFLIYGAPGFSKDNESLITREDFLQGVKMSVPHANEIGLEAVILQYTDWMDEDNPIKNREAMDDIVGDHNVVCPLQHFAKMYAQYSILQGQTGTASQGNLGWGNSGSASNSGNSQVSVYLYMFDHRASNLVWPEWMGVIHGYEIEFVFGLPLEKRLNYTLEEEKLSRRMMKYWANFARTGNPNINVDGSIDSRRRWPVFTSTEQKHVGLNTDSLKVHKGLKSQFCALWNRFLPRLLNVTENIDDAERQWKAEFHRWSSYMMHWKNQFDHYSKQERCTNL

CC(C)(C)c1cc(C(=O)NCCC2CCN(Cc3ccccc3)CC2)cc(C(C)(C)C)c1O
IC50 [1]: 109 µM | Activity (mmolequiv/mmol) [2]: 0.84 | Activity [3]: 49.1% | inhibition [4]: 49.7% | IC50 [5]: 89.2 µM | inhibition (Acetylcholinesterase [6]): 34.1% | Activity (mmolequiv/mmol) [7]: 1.6 | inhibition (Cholinesterase [8]): 15.8% | inhibition [9]: 41.8%

CC(C)(C)c1cc(/C=C/C(=O)NCCC2CCN(Cc3ccc(C#N)cc3)CC2)cc(C(C)(C)C)c1O
IC50 [10]: 79.5 µM | IC50 [1]: 78.2 µM | Activity (mmolequiv/mmol) [2]: 0.84 | Ratio IC50 (Homo sapiens): > 36 | inhibition [4]: 48.1% | IC50 (Acetylcholinesterase [11]): 0.77 µM | IC50 [5]: 13.9 µM | IC50 (Acetylcholinesterase [12]): 2.78 µM | Activity (mmolequiv/mmol) [7]: 1.62 | inhibition (Cholinesterase [8]): 41.2%

CC(C)(C)c1cc(/C=C/C(=O)NCCC2CCN(Cc3ccc(F)c(F)c3)CC2)cc(C(C)(C)C)c1O
IC50 [10]: 65.7 µM | IC50 [1]: 64.5 µM | Activity (mmolequiv/mmol) [2]: 0.79 | inhibition [4]: 39.9% | IC50 (Acetylcholinesterase [11]): 0.42 µM | IC50 [5]: 9.3 µM | IC50 (Cholinesterase [13]): Not Active | IC50 (Acetylcholinesterase [12]): 1.62 µM | Activity (mmolequiv/mmol) [7]: 1.57

Cc1ccc(CN2CCC(CCNC(=O)/C=C/c3cc(C(C)(C)C)c(O)c(C(C)(C)C)c3)CC2)cc1
IC50 [10]: 60.4 µM | IC50 [1]: 70.1 µM | Activity (mmolequiv/mmol) [2]: 0.89 | inhibition [4]: 41.4% | IC50 (Acetylcholinesterase [11]): 0.72 µM | IC50 [5]: 8.9 µM | IC50 (Cholinesterase [13]): Not Active | IC50 (Acetylcholinesterase [12]): 2.01 µM | Activity (mmolequiv/mmol) [7]: 1.57

COc1ccc(CN2CCC(CCNC(=O)/C=C/c3cc(C(C)(C)C)c(O)c(C(C)(C)C)c3)CC2)cc1
IC50 [10]: 61.2 µM | IC50 [1]: 72.5 µM | Activity (mmolequiv/mmol) [2]: 0.82 | inhibition [4]: 43.6% | IC50 (Acetylcholinesterase [11]): 0.85 µM | IC50 [5]: 6.7 µM | IC50 (Cholinesterase [13]): Not Active | IC50 (Acetylcholinesterase [12]): 2.12 µM | Activity (mmolequiv/mmol) [7]: 1.66

CC(C)(C)c1cc(CCC(=O)NC2CCN(Cc3ccccc3)CC2)cc(C(C)(C)C)c1O
IC50 [10]: 80.3 µM | IC50 [1]: 90.2 µM | Activity (mmolequiv/mmol) [2]: 0.68 | inhibition [4]: 28.7% | IC50 [5]: 70.4 µM | inhibition (Acetylcholinesterase [6]): 30.2% | Activity (mmolequiv/mmol) [7]: 1.62 | inhibition (Cholinesterase [8]): 12.3% | inhibition [9]: 34.4%

Cc1ccccc1CN1CCC(CCNC(=O)/C=C/c2cc(C(C)(C)C)c(O)c(C(C)(C)C)c2)CC1
IC50 [10]: 65.3 µM | IC50 [1]: 69.3 µM | Activity (mmolequiv/mmol) [2]: 0.75 | Ratio IC50 (Homo sapiens): > 40 | inhibition [4]: 55.9% | IC50 (Acetylcholinesterase [11]): 0.87 µM | IC50 [5]: 7.2 µM | IC50 (Acetylcholinesterase [12]): 2.51 µM | Activity (mmolequiv/mmol) [7]: 1.61 | inhibition (Cholinesterase [8]): 30.2%

CC(C)(C)c1cc(/C=C/C(=O)NCCC2CCN(Cc3ccccc3Cl)CC2)cc(C(C)(C)C)c1O
IC50 [10]: 80.2 µM | IC50 [1]: 72.1 µM | Activity (mmolequiv/mmol) [2]: 0.64 | inhibition [4]: 35.5% | IC50 (Acetylcholinesterase [11]): 0.59 µM | IC50 [5]: 9.8 µM | IC50 (Cholinesterase [13]): Not Active | IC50 (Acetylcholinesterase [12]): 2.44 µM | Activity (mmolequiv/mmol) [7]: 1.6

CC(C)(C)c1cc(/C=C/C(=O)NCCC2CCN(Cc3cccc(Cl)c3)CC2)cc(C(C)(C)C)c1O
IC50 [10]: 83.1 µM | IC50 [1]: 65.1 µM | Activity (mmolequiv/mmol) [2]: 0.74 | inhibition [4]: 41.5% | IC50 (Acetylcholinesterase [11]): 0.74 µM | IC50 [5]: 8.7 µM | IC50 (Cholinesterase [13]): Not Active | IC50 (Acetylcholinesterase [12]): 2.54 µM | Activity (mmolequiv/mmol) [7]: 1.55

CC(C)(C)c1cc(/C=C/C(=O)NCCC2CCN(Cc3cccc(F)c3)CC2)cc(C(C)(C)C)c1O
IC50 [10]: 55.2 µM | IC50 [1]: 58.4 µM | Activity (mmolequiv/mmol) [2]: 0.78 | inhibition [4]: 37.9% | IC50 (Acetylcholinesterase [11]): 0.68 µM | IC50 [5]: 6.5 µM | IC50 (Cholinesterase [13]): Not Active | IC50 (Acetylcholinesterase [12]): 1.33 µM | Activity (mmolequiv/mmol) [7]: 1.59
